Results: patent US5643893A, “N-substituted-(Dihydroxyboryl)alkyl purine, indole and pyrimidine derivatives, useful as inhibitors of inflammatory cytokines” (Macronex, Inc., priority 1994, dated 1997)
Each block holds one molecule with its values, some of them ahead of it.

Tests used:
PBMC [1] = assay: Two-way mixed lymphocyte reaction (MLR); type: cell-based; conditions: Homo sapiens, effect INHIB (Inhibition)
Protocol: (§1) Unless otherwise described the medium for human cell culture assays is defined as follows: RPMI-1640 is supplemented with 100 U/ml penicillin, 100 μg/ml streptomycin, 2 mM L-glutamine; 1 mM Na pyruvate; 1% MEM non-essential amino acids and 25 mM HEPES; (all from GIBCO, Gaithersburg, Md.). Complete medium is defined as medium supplemented with 5% pooled, heat-inactivated (56° C., 30 minutes) human AB serum (Pel-freeze, Brown Deer, Wis.).
Two-Way Mixed Lymphocyte Reaction (MLR):
PBMC are prepared as described for the mitogen assays, but resuspended to 2×10^6 cells/ml in complete medium. Fifty μl of cell suspension from two different individuals is then added to each well of a 96-well flat bottom tissue culture plate. An additional 100 μl of complete medium, dexamethasone or test compounds are then added to each well, the plates are incubated for 6 days at 37° C., and then pulsed with ^3 H-thymidine and harvested as previously described.

Monocytes = assay: Inhibition of monocyte chemotaxis; type: cell-based, human; set-up: key: NE: No effect; NT: Not tested; INHIB: Inhibition; STIM: Stimulation; TC: Tolerated Concentration; conditions: chemoattractant FMLP
Protocol: Inhibition of Monocyte Chemotaxis:
Monocytes are prepared as previously described, and resuspended at 5×10^6 cells/ml in HBSS, 0.1% BSA (HBSS-BSA). Fluorophore labeling of the cells is carried out by adding calcein-AM to the above cells at a final concentration of 2 μM. Following a 30 minute incubation at 37° C. in humidified 5% CO2, the labeled monocytes are washed twice and incubated in a range of dilutions of the test materials for 60 minutes at 37° C. in humidified 5% CO2. The pre-treated, calcein-AM loaded cells are then added in triplicate to the wells of the top compartment of a NeuroProbe (Cabin, John, M.D.) 96-well chemotaxis chamber (2×10^5 cells/well) and permitted to migrate through a 10 μm thick bonded polycarbonate membrane (5 μm porosity; NeuroProbe Inc; Cabin, John, M.D.) towards the wells of the lower compartment containing the chemoattractant (FMLP) at 5×10^-9 M. After a 90 minute incubation at 37° C. in a humidified chamber, the wells of the upper chambers are aspirated, the monocyte-associated membrane removed, non-migrating cells wiped off and the filters permitted to air dry to 15 minutes. The number of cells migrating through the membranes are quantified by measuring the fluorescent intensity of the migrating cells in a fluorescent microplate reader (CytoFluor 2300, Millipore Corp., Bedford, Mass.)

PAF = assay: Monocyte release of PAF; type: cell-based, human; set-up: key: NE: No effect; NT: Not tested; INHIB: Inhibition; STIM: Stimulation; TC: Tolerated Concentration; conditions: zymosan A
Protocol: (§2) Monocyte Release of PGE2, LTB4, and PAF:
(§3) Monocytes isolated as described above, were washed and resuspended in RPMl containing 5 mg/ml HSA at 2×10^6 cells/ml and added to wells of a 48-well plates. The cells were allowed to adhere for 2 hours then washed in HBSS-BSA-HEPES buffer. Test materials were added at four concentrations (175 μl) for 60 minutes; then the monocytes were stimulated by addition of […] zymosan A (175 μl of 2× desired final concentration added). Supernatant medium was collected from the wells after 90 minutes incubation and stored at -20° C. until assayed. Supernatants were assayed for PGE2, LTB4 or PAF using specific scintillation proximity assays (SPA).

IL8 = assay: Monocyte release of IL-8; type: cell-based, human; set-up: key: NE: No effect; NT: Not tested; INHIB: Inhibition; STIM: Stimulation; TC: Tolerated Concentration; conditions: LPS 100 ng/ml
MTS = type: cell-based; conditions: printed in the EC50 column; effect TC; read-out: TC Tolerated Concentration (MTS)
TISSUE FACTOR = assay: Monocyte procoagulant activity (Tissue Factor); type: cell-based; conditions: Homo sapiens, effect INHIB (Inhibition)
Protocol: Purified monocytes prepared as described above are suspended at 4×10^6 cells/ml in complete medium. To each well of a 48-well flat bottomed tissue culture plate is added 0.125 ml of cell suspension. Test materials (diluted in complete medium at 2× the desired final concentration) are added in 250 μl volumes to each well. Control wells receive 250 μl of complete medium or 250 μl of IL-4 (diluted to×2 the desired final concentration of 50 ng/ml). All samples are tested at four concentrations in the presence or absence of 100 ng/ml LPS (125 μl of 4× desired final concentration added) and incubated at 37° C. in humidified 5% CO2, for 16 hours. At this time, culture supernatants are aspirated off, and the unattached cells and cell debris are removed by a 2 minute spin in a microcentrifuge at 10,000 g.l The release of cytokines and growth factors is determined in the cell-free supernatants using ELISA capture assays. In this way, testing for IL-1β, TNF-α, IL-1 receptor antagonist, IL-6, IL-8, GM-CSF and PDGF is conducted.
Monocyte Procoagulant Activity (Tissue Factor):
The adhered monocytes remaining on the 48-well tissue culture plates after removal of the supernatants above, are used to measure levels of Tissue Factor production. The cells are solubilized overnight at 4° C. in 10% Triton-×100 in PBS, diluted to 1% Triton-×100 with PBS then assayed by ELISA for Tissue Factor.

IL1β = assay: Monocyte release of IL-1β; type: cell-based, human; set-up: key: NE: No effect; NT: Not tested; INHIB: Inhibition; STIM: Stimulation; TC: Tolerated Concentration; conditions: LPS 100 ng/ml
SUPEROXIDE = assay: Monocyte superoxide anion (O2) release; type: cell-based, human; set-up: key: NE: No effect; NT: Not tested; INHIB: Inhibition; STIM: Stimulation; TC: Tolerated Concentration; conditions: zymosan A
Protocol: Monocyte Superoxide Anion (O2) Release:
Monocytes are prepared as described above and resuspended to 5×10^6 /ml in HBSS containing 10 Mm HEPES, 2 g/l glucose, 0.1% BSA, Ph 7.2. To each well of a 96-well flat bottom, tissue culture plate is added 100 μl of cell suspension and 100 μl of buffer or test materials. Samples are run in quadruplicate. The plate is incubated for 60 minutes at 37° C. followed by the addition of 50 μl of buffer containing cytochrome C (5 mg/ml; type VI, horse heart, Sigma) and bovine liver catalase (1500 U/ml; Sigma) in the presence of zymosan A (ZYM); 750 μg/ml; Sigma). The plate is incubated an additional 120 minutes at 37° C. during which the absorbance at 550 nm is monitored using a microplate reader incorporating dedicated software for kinetic analysis (Molecular Devices; Menlo Park, Calif.).

PBMC [2] = assay: PBMC proliferation to mitogen PHA; type: cell-based; conditions: Homo sapiens, effect INHIB (Inhibition), PHA 1.0 μg/ml
Protocol: as §1
Human Peripheral Blood Mononuclear Cell (PBMC) Isolation:
Venous blood is obtained from healthy volunteers and mixed with an equal volume of sterile isotonic saline/10 mM HEPES and placed into 50 ml conical polypropylene tubes in 30 ml aliquots. Each aliquot of diluted blood is underlaid with 20-25 ml of sterile Lymphocyte Separation Medium (LSM; Organon-Technika, Durham, N.C.). The tubes are centrifuged at 400 g for 40 minutes at room temperature. […] Cell concentrations for each donor are determined by counting in an haematology analyser (Serono-Baker). […]
PBMC are adjusted to 4×10^6 /ml in complete medium. […] The contents of the wells are harvested onto glass fibre filters using a multiple automated sample harvester (Tomtec), and the incorporated ^3 H-thymidine determined by liquid scintillation spectrophotometry and represented an cpm (counts per minute) incorporated per well.

TNFα = assay: Monocyte release of TNF-α; type: cell-based; conditions: Homo sapiens, effect INHIB (Inhibition), LPS 100 ng/ml
IL6 = assay: Monocyte release of IL-6; type: cell-based, human; set-up: key: NE: No effect; NT: Not tested; INHIB: Inhibition; STIM: Stimulation; TC: Tolerated Concentration; conditions: LPS 100 ng/ml
LDH = type: cell-based; conditions: printed in the EC50 column; effect TC; read-out: TC Tolerated Concentration (LDH)
IL1ra = assay: Monocyte release of IL-1 receptor antagonist; type: cell-based, human; set-up: key: NE: No effect; NT: Not tested; INHIB: Inhibition; STIM: Stimulation; TC: Tolerated Concentration
LTB4 = assay: Monocyte release of LTB4; type: cell-based; conditions: Homo sapiens, effect INHIB (Inhibition), zymosan A
Protocol: as §2, §3

GM-CSF = assay: Monocyte release of GM-CSF; type: cell-based; conditions: Homo sapiens, effect INHIB (Inhibition), LPS 100 ng/ml
HIV-1 = conditions: 12 weeks, p<0.05; cited from earlier work
[3] = test system: HIV-1 in peripheral blood mononuclear cells; conditions: advanced HIV-1 infection and AIDS; cited from earlier work
TNF-α = conditions: cited from earlier work
[4] = test system: latent HIV-1 in a monocytoid (U1) cell line; conditions: cited from earlier work

EC50 (TISSUE FACTOR): 2.1 µM
EC50 (TNFα): 0.57 µM
EC50 (LTB4): 90.5 µM
EC50 (GM-CSF): 6.8 µM
Compound: Nc1nc(Cl)c2ncn(CCCCB(O)O)c2n1 [2-Amino-6-chloro-9-(4-dihydroxyborylbutyl)purine]
EC50 (PBMC [1]): 50 µM
EFFECT (CHEMOTAXIS) (Monocytes): NE
EFFECT (PAF) (PAF): NE
EFFECT (IL8) (IL8): NE
MNTC (MTS): 100 µM
EFFECT (IL1β) (IL1β): NE
EFFECT (SUPEROXIDE) (SUPEROXIDE): NE
EC50 (PBMC [2]): 100 µM
EFFECT (IL6) (IL6): NE
MNTC (LDH): 100 µM
EFFECT (IL1ra) (IL1ra): NE

Compound: CC(=O)CCCCn1c(=O)c2c(ncn2C)n(C)c1=O [Pentoxifylline]
mean HIV-1 viral load (levels with either agent alone) (HIV-1): 8- to 9 fold

Compound: O=C1CCC(N2C(=O)c3ccccc3C2=O)C(=O)N1 (centres unmarked) [Thalidomide]
inhibition of activation of virus in PBMC, patients [3]: 16 out of 17
agonist-induced TNF-α protein and mRNA production (TNF-α): reduction
activation of latent HIV-1 [4]: suppress the activation of latent HIV-1

Compound: Cc1cn([C@H]2C[C@H](N=[N+]=[N-])[C@@H](CO)O2)c(=O)[nH]c1=O [zidovudine]
mean HIV-1 viral load (levels with either agent alone) (HIV-1): 8- to 9 fold
